Measurements: patent US6576627B1, “Phosphonic acid derivatives having carboxypeptidase b inhibitory activity” (Meiji Seika Kaisha Ltd., priority 1999, dated 2003)

Target: T1, carboxypeptidase B (Homo sapiens, UniProt Q96IY4)
T1 construct: from tissue; host or cells: human plasma (citrated)
T1 sequence (Q96IY4 115-423): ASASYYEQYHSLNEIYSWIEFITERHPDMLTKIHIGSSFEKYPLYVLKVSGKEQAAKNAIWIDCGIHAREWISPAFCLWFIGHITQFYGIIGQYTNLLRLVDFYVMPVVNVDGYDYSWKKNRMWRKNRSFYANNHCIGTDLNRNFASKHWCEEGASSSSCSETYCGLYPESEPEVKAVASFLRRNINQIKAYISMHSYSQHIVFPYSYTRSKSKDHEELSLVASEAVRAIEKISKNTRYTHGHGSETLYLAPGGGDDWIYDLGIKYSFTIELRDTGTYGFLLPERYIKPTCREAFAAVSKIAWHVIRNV
Assay: Inhibitory activity against carboxypeptidase B (activated pro-CPB partially purified from human plasma, Hip-Arg substrate)
Assay type: biochemical
Settings: tested substance 500 nM, 25° C. for 60 minutes, absorbance at 405 nm
Description: Inhibitory activity of the compounds of the present invention against carboxypeptidase B was measured as follows according to the method described in Thromb. Haemost. 371(1998).
(a) Partial Purification of Carboxypeptidase B Precursor (pro-CPB) from Human Plasma
Human plasma collected over citric acid was added with 80 mM barium chloride and treated at 4° C. for 30 minutes. The supernatant obtained by centrifugation at 10,000 rpm for 20 minutes was dialyzed against 20 mM HEPES buffer containing 0.15 M sodium chloride (pH 7.4). Furthermore, protein in the fractions obtained with 30% to 80% ammonium sulfate were partially purified by chromatography using a Q-Sepharose column (elution with 50 mM tris-HCl buffer (pH 7.4) gradually containing sodium chloride to 0.5 M).
(b) Activation of pro-CPB
pro-CPB (20 μl) was added with 20 μl of a thrombomodulin solution (Thrombomodulin derived from rabbit lung, American Diagnostia Inc., Product No. #237, dissolved at concentration of 300 ng/ml in buffer A as 50 mM tris-HCl buffer (pH 7.4) supplemented with 0.1% Lubrol, 0.1% BSA and 0.15 M sodium chloride), and treated at 25° C. for 3 minutes. Then, the mixture was added with 20 μl of thrombin (Thrombin derived from human plasma, Sigma, Product No. T8885, dissolved at concentration of 3 u/ml in buffer B as 50 mM Tris-HCl buffer (pH 7.4) supplemented with 0.1% BSA, 0.15 M NaCl and 10 mM calcium chloride) and further treated at 25° C. for 30 minutes for activation(*1).
(c) Measurement of CPB Inhibitory Activity
By using a microplate, 4 μl of the sample was added with a mixed solution of 41 μl of buffer C (0.1 M tris-HCl buffer (pH 7.6)) and 25 μl of a substrate solution (Hip-Arg, Sigma, H2508, dissolved in buffer C at concentration of 4 mM.), and further added with 10 μl of the activated CPB solution (*1), and then the mixture was well mixed and allowed to react at 25° C. for 60 minutes. Then, 100 μl of 0.2 M PIPES buffer (pH 7.5) containing 12.5% Tween was added to the mixture to stop the reaction. After 5 minutes, the mixture was added with 100 μl of a coloring solution (2-methoxyethanol containing 1% cyanuryl chloride) and allowed to stand at room temperature for 15 minutes, and then absorbance was measured at 405 nm by using a microplate reader (Bio Rad Model 3550).
Inhibitory activity against carboxypeptidase B was calculated by using the following equation as an inhibitory rate, wherein A represents absorbance in the absence of a tested substance; B represents absorbance in the presence of a tested substance (500 nM); A′ and B′ represent the aforementioned absorbances obtained by using non-activated enzyme without and with the tested substance, respectively.
Inhibitory rate (%)=[1−{(B-B′)/(A-A′)}]×100
The results of the carboxypeptidase B inhibitory rates are shown in Table 1, which were calculated by using the above equation and the results of the measurements in the above experiments for the compounds of the present invention.

Structure (SMILES)	Carboxypeptidase B inhibitory rates by tested substance at 500 nM
CC(C)C(NC(=O)CCc1ccccc1)P(=O)(O)OC(CCCCN)C(=O)O [Example 2, (S)-6-Amino-2-((2-methyl-1-(3-phenylpropanoylamino)propyl)(hydroxyphosphinoyl)oxy)hexanoic acid]	>90%

Same assay, conditions: tested substance 500 nM, 25° C. for 60 minutes, absorbance at 405 nm, read-out: Carboxypeptidase B inhibitory rates by tested substance at 500 nM

inhibition at 0.5 µM	Structure (SMILES)
30%	C[C@H](NC(=O)OCc1ccccc1)P(=O)(O)O[C@@H](CCCCN)C(=O)O [Example 1, (S)-6-Amino-2-(((R)-1-(benzyloxycarbonylamino)ethyl)(hydroxyphosphinoyl)oxy)hexanoic acid]
> 90%	CCC(CC)C(NC(=O)CCc1ccccc1)P(=O)(O)OC(CCCCN)C(=O)O [Example 3, (S)-6-Amino-2-((2-ethyl-1-(3-phenylpropanoylamino)butyl)(hydroxyphosphinoyl)oxy)hexanoic acid]
> 90%	CC(NC(=O)CCc1ccccc1)P(=O)(O)OC(CCCCN)C(=O)O [Example 4, (S)-6-Amino-2-((1-(3-phenylpropanoylamino)ethyl)(hydroxyphosphinoyl)oxy)hexanoic acid]
30%	NCCCC[C@H](OP(=O)(O)CNC(=O)CCc1ccccc1)C(=O)O [Example 5, (S)-6-Amino-2-(((3-phenylpropanoylamino)methyl)(hydroxyphosphinoyl)oxy)hexanoic acid]
> 90%	NCCCCC(OP(=O)(O)C(NC(=O)CCc1ccccc1)C1CC1)C(=O)O [Example 6, (S)-6-Amino-2-((1-cyclopropyl(3-phenylpropanoylamino)methyl)(hydroxyphosphinoyl)oxy)hexanoic acid]
> 90%	CCCC(NC(=O)CCc1ccccc1)P(=O)(O)OC(CCCCN)C(=O)O [Example 8, (S)-6-Amino-2-((1-(3-phenylpropanoylamino)butyl)(hydroxyphosphinoyl)oxy)hexanoic acid]
> 90%	NCCCCC(OP(=O)(O)C(NC(=O)CCc1ccccc1)C1CCCCC1)C(=O)O [Example 9, (S)-6-Amino-2-((1-cyclohexyl-1-(3-phenylpropanoylamino)methyl)(hydroxyphosphinoyl)oxy)hexanoic acid]
> 90%	NCCCC[C@H](OP(=O)(O)C(NC(=O)CCc1ccccc1)C1CCC1)C(=O)O (stereo partly drawn) [Example 10, (S)-6-Amino-2-((1-cyclobutyl-1-(3-phenylpropanoylamino)methyl)(hydroxyphosphinoyl)oxy)hexanoic acid]
> 90%	CC(C)CC(NC(=O)CCc1ccccc1)P(=O)(O)OC(CCCCN)C(=O)O [Example 12, (S)-6-Amino-2-((3-methyl-1-(3-phenylpropanoylamino)butyl)(hydroxyphosphinoyl)oxy)hexanoic acid]
> 90%	NCCCC[C@H](OP(=O)(O)C1(NC(=O)CCc2ccccc2)CCCCC1)C(=O)O [Example 14, (S)-6-Amino-2-((1-(3-phenylpropanoylamino)cyclohexyl)(hydroxyphosphinoyl)oxy)hexanoic acid]
> 90%	CCC(NC(=O)CCc1ccccc1)P(=O)(O)OC(CCCCN)C(=O)O [Example 16, (S)-6-Amino-2-((1-(3-phenylpropanoylamino)propyl)(hydroxyphosphinoyl)oxy)hexanoic acid]
> 90%	NCCCC[C@H](OP(=O)(O)C1(NC(=O)CCc2ccccc2)CCCC1)C(=O)O [Example 20, (S)-6-Amino-2-((1-(3-phenylpropanoylamino)cyclopentyl)(hydroxyphosphinoyl)oxy)hexanoic acid]
50%	CC(C)(C)CC(NC(=O)CCc1ccccc1)P(=O)(O)OC(CCCCN)C(=O)O [Example 23, (S)-6-Amino-2-((3,3-dimethyl-1-(3-phenylpropanoylamino)butyl)(hydroxyphosphinoyl)oxy)hexanoic acid]
> 90%	CC(C)C(NC(=O)CCCc1ccccc1)P(=O)(O)OC(CCCCN)C(=O)O [Example 24, (S)-6-Amino-2-(2-methyl-1-(4-phenylbutanoylamino)propyl(hydroxyphosphinoyl)oxy)hexanoic acid]
80%	NCCCCC(OP(=O)(O)C(CCC(F)(F)F)NC(=O)CCc1ccccc1)C(=O)O [Example 25, (S)-6-Amino-2-((4,4,4-trifluoro-1-(3-phenylpropanoylamino)butyl)(hydroxyphosphinoyl)oxy)hexanoic acid]
40%	NCCCCC(OP(=O)(O)C(NC(=O)CCc1ccccc1)c1ccccc1)C(=O)O [Example 34, (S)-6-Amino-2-((1-phenyl-1-(3-phenylpropanoylamino)methyl)(hydroxyphosphinoyl)oxy)hexanoic acid]
> 90%	NCCCCC(OP(=O)(O)C(NC(=O)CCc1ccccc1)C1CCOCC1)C(=O)O [Example 35, (S)-6-Amino-2-((1-(3-phenylpropanoylamino)-1-(tetrahydropyran-4-yl)methyl)(hydroxyphosphinoyl)oxy)bexanoic acid]
70%	NCCCCC(OP(=O)(O)C(CO)NC(=O)CCc1ccccc1)C(=O)O [Example 37, (S)-6-Amino-2-((2-hydroxy-1-(3-phenylpropanoylamino)ethyl)(hydroxyphosphinoyl)oxy)hexanoic acid]
> 90%	NCCCCC(OP(=O)(O)C(NC(=O)CCc1ccccc1)C1CCNCC1)C(=O)O [Example 39, (S)-6-Amino-2-((1-(piperidin-4-yl)-1-(3-phenylpropanoylamino)methyl)(hydroxyphosphinoyl)oxy)hexanoic acid]
30%	NCCCCC(OP(=O)(O)C(CCCN)NC(=O)CCc1ccccc1)C(=O)O [Example 40, (S)-6-Amino-2-((4-amino-1-(3-phenylpropanoylamino)butyl)(hydroxyphosphinoyl)oxy)hexanoic acid]
> 90%	CC1CCC(C(NC(=O)CCc2ccccc2)P(=O)(O)OC(CCCCN)C(=O)O)CC1 [Example 41, (S)-6-Amino-2-((1-(4-methylcyclohexyl)-1-(3-phenylpropanoylamino)methyl)(hydroxyphosphinoyl)oxy)hexanoic acid]

Structure (SMILES)	inhibition at 0.5 µM
CC(C)C(NC(=O)CCc1ccccc1)P(=O)(O)OC(CCCCN)C(=O)O [Example 19, (S)-6-Amino-2-((2-methyl-(1R)-(3-phenylpropanoylamino)propyl)(hydroxyphosphinoyl)oxy)hexanoic acid]	> 90%

System: ICR male mice
Assay: Toxicity test by single administration
Assay type: in vivo
Settings: single intravenous administration in saline, dose of 1 g/kg, ICR male mice of 5 weeks old
Description: Toxicity Test Example by Single Administration
The compound of Example 19 of the present invention was dissolved in saline intravenously administered to 6 individuals of ICR male mice of 5 weeks old.

Structure (SMILES)	death of the mice or severe toxicity
CC(C)C(NC(=O)CCc1ccccc1)P(=O)(O)OC(CCCCN)C(=O)O [Example 19, (S)-6-Amino-2-((2-methyl-(1R)-(3-phenylpropanoylamino)propyl)(hydroxyphosphinoyl)oxy)hexanoic acid]	no death of the mice or severe toxicity was observed
